Reference: patent publication US7598241B2, “Carboxamide derivatives and their use as factor Xa inhibitors” (Merck Patent GmbH, priority 2003, dated 2009)

What was measured:
[1] = biological target: factor Xa (Homo sapiens, UniProt P00742); experiment: Factor Xa inhibition (FXa-IC50); format: biochemical
Description: The inhibition of factor Xa by the compounds according to the invention and the measurement of the anticoagulant and antithrombotic activity can be determined by conventional in-vitro or in-vivo methods. A suitable method is described, for example, by J. Hauptmann et al. in Thrombosis and Haemostasis 1990, 63, 220-223.
The inhibition of factor Xa can be measured, for example, by the method of T. Hara et al. in Thromb. Haemostas. 1994, 71, 314-319.

[2] = biological target: TF/FVIIa (Homo sapiens, UniProt P08709); experiment: TF/FVIIa inhibition (TF/FVIIa-IC50); format: biochemical
Description: Coagulation factor VIIa initiates the extrinsic part of the coagulation cascade after binding to tissue factor and contributes to the activation of factor X to give factor Xa. Inhibition of factor VIIa thus prevents the formation of factor Xa and thus subsequent thrombin formation. • The inhibition of factor VIIa by the compounds according to the invention and the measurement of the anticoagulant and antithrombotic activity can be determined by conventional in-vitro or in-vivo methods. A conventional method for the measurement of the inhibition of factor VIIa is described, for example, by H. F. Ronning et al. in Thrombosis Research 1996, 84, 73-81.

Chain of TF/FVIIa (P08709 213-466 limits assumed): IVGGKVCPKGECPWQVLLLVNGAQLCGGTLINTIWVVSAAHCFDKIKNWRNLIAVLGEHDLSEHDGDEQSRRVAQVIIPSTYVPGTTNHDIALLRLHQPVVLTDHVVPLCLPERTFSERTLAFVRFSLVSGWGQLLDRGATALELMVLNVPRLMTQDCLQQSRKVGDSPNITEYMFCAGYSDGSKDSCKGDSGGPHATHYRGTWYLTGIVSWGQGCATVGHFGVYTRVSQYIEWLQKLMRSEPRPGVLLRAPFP
Chain of TF/FVIIa (P08709 61-212 partner limits assumed): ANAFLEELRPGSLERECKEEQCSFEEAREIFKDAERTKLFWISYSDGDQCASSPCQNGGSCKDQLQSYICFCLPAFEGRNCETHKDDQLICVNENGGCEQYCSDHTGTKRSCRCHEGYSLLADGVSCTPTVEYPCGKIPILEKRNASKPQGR
Chain of TF/FVIIa (P13726 33-295 partner): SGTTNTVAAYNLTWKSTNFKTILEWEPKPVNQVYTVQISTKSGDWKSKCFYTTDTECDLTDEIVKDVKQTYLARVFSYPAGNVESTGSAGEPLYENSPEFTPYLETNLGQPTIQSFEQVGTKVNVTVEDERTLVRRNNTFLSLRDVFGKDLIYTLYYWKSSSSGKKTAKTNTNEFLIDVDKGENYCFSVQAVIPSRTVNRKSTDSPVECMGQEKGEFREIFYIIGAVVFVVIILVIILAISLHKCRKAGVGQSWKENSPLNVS
Chain of factor Xa (P00742 235-488 limits assumed): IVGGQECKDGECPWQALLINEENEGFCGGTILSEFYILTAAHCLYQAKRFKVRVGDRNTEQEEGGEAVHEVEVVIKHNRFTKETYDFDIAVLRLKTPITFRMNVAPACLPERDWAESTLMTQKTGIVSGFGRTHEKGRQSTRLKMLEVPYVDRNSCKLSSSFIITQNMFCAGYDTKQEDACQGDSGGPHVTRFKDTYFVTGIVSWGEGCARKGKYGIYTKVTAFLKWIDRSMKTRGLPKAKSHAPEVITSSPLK
Chain of factor Xa (P00742 41-179 partner limits assumed): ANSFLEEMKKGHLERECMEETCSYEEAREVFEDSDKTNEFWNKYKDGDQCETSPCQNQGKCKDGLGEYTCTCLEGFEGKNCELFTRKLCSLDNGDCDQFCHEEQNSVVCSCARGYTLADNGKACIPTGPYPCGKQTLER

Row | IC50 [1] [nM] | IC50 [2] [nM] | Compound
1 | 28 | 28 | CS(=O)(=O)CCC(NC(=O)Nc1ccc(Cl)cc1)C(=O)Nc1ccc(-n2ccccc2=O)cc1 (stereo not shown) [Compound 1A, 2-[3-(4-chlorophenyl)ureido]-N-[4-(2-oxo-2H-pyridin-1-yl)phenyl]-4-methanesulfonylbutyramide]
2 | 42 | 43 | CS(=O)(=O)CCC(NC(=O)Nc1ccc(Cl)cc1)C(=O)Nc1ccc(-n2ccncc2=O)cc1 (stereo not shown) [Compound 1B, 2-[3-(4-chlorophenyl)ureido]-N-[4-(2-oxo-2H-pyrazin-1-yl)phenyl]-4-methanesulfonylbutyramide]
3 | 6.4 | 12 | CS(=O)(=O)C[C@H](NC(=O)Nc1ccc(Cl)cc1)C(=O)Nc1ccc(-n2ccccc2=O)cc1 [Compound 2A, (R)-2-[3-(4-chlorophenyl)ureido]-N-[4-(2-oxo-2H-pyridin-1-yl)phenyl]-3-methanesulfonylpropionamide]

Row | Compound | IC50 [1] [nM] | IC50 [2] [nM]
4 | COP(=O)(C[C@@H](NC(=O)Nc1ccc(Cl)cc1)C(=O)Nc1ccc(N2CCOCC2=O)cc1)OC [Compound 1D, (S)-2-[3-(4-chlorophenyl)ureido]-N-[4-(3-oxomorpholin-4-yl)phenyl]-3-(dimethoxyphosphoryl)propionamide] | 85 | –
